Test results reported in patent US20230120564A1, “PYRIDO[3,4-D]PYRIMIDINE DERIVATIVE AND THERAPEUTIC PHARMACEUTIC COMPOSITION COMPRISING SAME” (KOREA INSTITUTE OF SCIENCE AND TECHNOLOGY, priority 2020, published 2023).

What was measured:
[1] = molecular target: EPHB2 (Homo sapiens, UniProt P29323); test: full kinase panel biochemical assay; settings: single concentration of 1 μM; read-out: percent inhibition of EPHB2
Method: (§1) In order to measure the protein kinase inhibitory activity (% inhibition) of the compound of the present invention, biochemical assay was performed in the full kinase panel. As a test compound, Compound No. 4 was used. The percent inhibition of each kinase when treated with the test compound at a single concentration of 1 μM was measured, and the residual enzyme activity values (%) of the kinases were calculated. Kinases whose calculated residual enzyme activity values (%) was 30% or less (i.e., kinases inhibited by 70% or more) are as follows: ABL1, ABL2/ARG, ACK1, ARAF, BLK, BMX/ETK, BRAF, BRK, BTK, c-Kit, c-Src, CSK, DDR1, DDR2, EPHA1, EPHA2, EPHA3, EPHA4, EPHA5, EPHA6, EPHA7, EPHA8, EPHB1, EPHB2, EPHB3, EPHB4, ERBB2/HER2, ERBB4/HER4, FGFR1, FGFR2, FGFR3, FGR, FLT1/VEGFR1, FLT4/VEGFR3, FMS, FRK/PTK5, FYN, GCK/MAP4K2, HCK, HGK/MAP4K4, JAK1, JAK2, KDR/VEGFR2, KHS/MAP4K5, LCK, LYN, LYN B, MEKK1, MLK4, MYLK3, NEK5, P38a/MAPK14, P38b/MAPK11, PDGFRa, PDGFRb, PEAK1, RET, RIPK2, RIPK4, SIK2, SRPK1, TAOK3/JIK, TLK1, TNK1, TXK, TYK2, YES/YES1, YSK4/MAP3K19, and ZAK/MLTK.

[2] = molecular target: FYN (Homo sapiens, UniProt P06241); test: full kinase panel biochemical assay; settings: single concentration of 1 μM; read-out: percent inhibition of FYN
Method: as §1

[3] = molecular target: JAK2 (Homo sapiens, UniProt O60674); test: full kinase panel biochemical assay; settings: single concentration of 1 μM; read-out: percent inhibition of JAK2
Method: as §1

[4] = molecular target: HGK/MAP4K4 (Homo sapiens, UniProt O95819); test: full kinase panel biochemical assay; settings: single concentration of 1 μM; read-out: percent inhibition of HGK/MAP4K4
Method: as §1

[5] = molecular target: LCK (Homo sapiens, UniProt P06239); test: full kinase panel biochemical assay; settings: single concentration of 1 μM; read-out: percent inhibition of LCK
Method: as §1

[6] = molecular target: EPHA1 (Homo sapiens, UniProt P21709); test: full kinase panel biochemical assay; settings: single concentration of 1 μM; read-out: percent inhibition of EPHA1
Method: as §1

[7] = molecular target: DDR2 (Homo sapiens, UniProt Q16832); test: full kinase panel biochemical assay; settings: single concentration of 1 μM; read-out: percent inhibition of DDR2
Method: as §1

[8] = molecular target: FGFR3 (Homo sapiens, UniProt P22607); test: full kinase panel biochemical assay; settings: single concentration of 1 μM; read-out: percent inhibition of FGFR3
Method: as §1

[9] = molecular target: P38b/MAPK11 (Homo sapiens, UniProt Q15759); test: full kinase panel biochemical assay; settings: single concentration of 1 μM; read-out: percent inhibition of P38b/MAPK11
Method: as §1

[10] = molecular target: TLK1 (Homo sapiens, UniProt Q9UKI8); test: full kinase panel biochemical assay; settings: single concentration of 1 μM; read-out: percent inhibition of TLK1
Method: as §1

[11] = molecular target: BRAF (Homo sapiens, UniProt P15056); test: full kinase panel biochemical assay; settings: single concentration of 1 μM; read-out: percent inhibition of BRAF
Method: as §1

[12] = molecular target: FGFR1 (Homo sapiens, UniProt P11362); test: full kinase panel biochemical assay; settings: single concentration of 1 μM; read-out: percent inhibition of FGFR1
Method: as §1

[13] = molecular target: ERBB2/HER2 (Homo sapiens, UniProt P04626); test: full kinase panel biochemical assay; settings: single concentration of 1 μM; read-out: percent inhibition of ERBB2/HER2
Method: as §1

[14] = molecular target: HCK (Homo sapiens, UniProt P08631); test: full kinase panel biochemical assay; settings: single concentration of 1 μM; read-out: percent inhibition of HCK
Method: as §1

[15] = molecular target: c-Src (Homo sapiens, UniProt P12931); test: full kinase panel biochemical assay; settings: single concentration of 1 μM; read-out: percent inhibition of c-Src
Method: as §1

[16] = molecular target: LYN (Homo sapiens, UniProt P07948); test: full kinase panel biochemical assay; settings: single concentration of 1 μM; read-out: percent inhibition of LYN
Method: as §1

[17] = molecular target: DDR1 (Homo sapiens, UniProt Q08345); test: full kinase panel biochemical assay; settings: single concentration of 1 μM; read-out: percent inhibition of DDR1
Method: as §1

[18] = molecular target: c-Kit (Homo sapiens, UniProt P10721); test: full kinase panel biochemical assay; settings: single concentration of 1 μM; read-out: percent inhibition of c-Kit
Method: as §1

[19] = molecular target: ERBB4/HER4 (Homo sapiens, UniProt Q15303); test: full kinase panel biochemical assay; settings: single concentration of 1 μM; read-out: percent inhibition of ERBB4/HER4
Method: as §1

[20] = molecular target: GCK/MAP4K2 (Homo sapiens, UniProt Q12851); test: full kinase panel biochemical assay; settings: single concentration of 1 μM; read-out: percent inhibition of GCK/MAP4K2
Method: as §1

[21] = molecular target: EPHA4 (Homo sapiens, UniProt P54764); test: full kinase panel biochemical assay; settings: single concentration of 1 μM; read-out: percent inhibition of EPHA4
Method: as §1

[22] = system: Ba/F3 (N-Ras G12D); test: Inhibition of cell proliferation (GI50); assay type: cell-based; settings: Mus musculus, BaF3; mt-NRAS (G12D) Ba/F3 cell line; read-out: Proliferation inhibitory activity (GI50, μM) Ba/F3 (N-Ras G12D)
Method: The inhibitory activities of the compounds of the present invention against the proliferation of the mt-NRAS (G12D) Ba/F3 and […] (mt-NRAS) cell lines were measured and the GI50 values thereof were calculated.

Sequence of GCK/MAP4K2 (Q12851 whole entry): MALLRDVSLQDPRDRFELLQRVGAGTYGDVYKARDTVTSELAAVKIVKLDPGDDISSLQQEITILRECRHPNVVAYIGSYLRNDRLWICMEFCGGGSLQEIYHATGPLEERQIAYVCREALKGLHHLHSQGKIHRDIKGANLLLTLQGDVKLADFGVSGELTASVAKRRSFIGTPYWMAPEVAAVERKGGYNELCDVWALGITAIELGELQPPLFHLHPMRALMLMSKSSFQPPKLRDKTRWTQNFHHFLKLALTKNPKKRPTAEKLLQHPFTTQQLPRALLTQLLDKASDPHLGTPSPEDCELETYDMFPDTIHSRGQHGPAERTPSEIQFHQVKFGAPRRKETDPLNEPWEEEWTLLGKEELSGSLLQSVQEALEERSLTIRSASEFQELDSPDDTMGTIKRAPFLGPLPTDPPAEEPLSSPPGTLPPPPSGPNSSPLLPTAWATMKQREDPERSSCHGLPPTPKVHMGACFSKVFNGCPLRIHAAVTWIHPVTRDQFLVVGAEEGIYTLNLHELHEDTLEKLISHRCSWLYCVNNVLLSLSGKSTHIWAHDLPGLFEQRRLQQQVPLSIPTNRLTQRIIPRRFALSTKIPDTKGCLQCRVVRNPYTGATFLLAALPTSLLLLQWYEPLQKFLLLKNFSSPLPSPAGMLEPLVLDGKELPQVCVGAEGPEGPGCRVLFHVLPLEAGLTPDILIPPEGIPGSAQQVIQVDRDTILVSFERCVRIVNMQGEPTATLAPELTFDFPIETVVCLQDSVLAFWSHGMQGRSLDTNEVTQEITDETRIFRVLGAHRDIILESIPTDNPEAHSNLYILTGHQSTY
Sequence of FGFR1 (P11362 22-822): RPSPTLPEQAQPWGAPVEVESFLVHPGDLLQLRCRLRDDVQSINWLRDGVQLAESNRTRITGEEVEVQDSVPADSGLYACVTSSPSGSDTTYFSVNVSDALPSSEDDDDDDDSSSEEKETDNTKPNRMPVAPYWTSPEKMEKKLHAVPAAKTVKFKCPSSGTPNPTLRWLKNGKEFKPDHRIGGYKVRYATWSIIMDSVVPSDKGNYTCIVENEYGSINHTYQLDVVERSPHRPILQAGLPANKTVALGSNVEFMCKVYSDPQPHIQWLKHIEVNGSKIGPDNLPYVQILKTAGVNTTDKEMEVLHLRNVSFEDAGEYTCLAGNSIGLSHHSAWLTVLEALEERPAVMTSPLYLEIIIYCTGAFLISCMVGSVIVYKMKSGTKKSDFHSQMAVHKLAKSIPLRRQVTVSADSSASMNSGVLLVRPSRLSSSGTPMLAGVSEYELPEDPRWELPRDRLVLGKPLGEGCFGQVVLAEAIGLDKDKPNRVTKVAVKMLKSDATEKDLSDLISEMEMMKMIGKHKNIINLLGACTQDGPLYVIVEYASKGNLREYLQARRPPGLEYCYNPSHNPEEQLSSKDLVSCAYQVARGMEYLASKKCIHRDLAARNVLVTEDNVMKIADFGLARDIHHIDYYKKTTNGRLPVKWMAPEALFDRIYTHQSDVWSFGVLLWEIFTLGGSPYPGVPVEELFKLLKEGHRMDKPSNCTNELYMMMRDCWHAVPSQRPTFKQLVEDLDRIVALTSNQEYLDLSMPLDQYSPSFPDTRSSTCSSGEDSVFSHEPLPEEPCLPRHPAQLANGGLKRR
Sequence of JAK2 (O60674 whole entry): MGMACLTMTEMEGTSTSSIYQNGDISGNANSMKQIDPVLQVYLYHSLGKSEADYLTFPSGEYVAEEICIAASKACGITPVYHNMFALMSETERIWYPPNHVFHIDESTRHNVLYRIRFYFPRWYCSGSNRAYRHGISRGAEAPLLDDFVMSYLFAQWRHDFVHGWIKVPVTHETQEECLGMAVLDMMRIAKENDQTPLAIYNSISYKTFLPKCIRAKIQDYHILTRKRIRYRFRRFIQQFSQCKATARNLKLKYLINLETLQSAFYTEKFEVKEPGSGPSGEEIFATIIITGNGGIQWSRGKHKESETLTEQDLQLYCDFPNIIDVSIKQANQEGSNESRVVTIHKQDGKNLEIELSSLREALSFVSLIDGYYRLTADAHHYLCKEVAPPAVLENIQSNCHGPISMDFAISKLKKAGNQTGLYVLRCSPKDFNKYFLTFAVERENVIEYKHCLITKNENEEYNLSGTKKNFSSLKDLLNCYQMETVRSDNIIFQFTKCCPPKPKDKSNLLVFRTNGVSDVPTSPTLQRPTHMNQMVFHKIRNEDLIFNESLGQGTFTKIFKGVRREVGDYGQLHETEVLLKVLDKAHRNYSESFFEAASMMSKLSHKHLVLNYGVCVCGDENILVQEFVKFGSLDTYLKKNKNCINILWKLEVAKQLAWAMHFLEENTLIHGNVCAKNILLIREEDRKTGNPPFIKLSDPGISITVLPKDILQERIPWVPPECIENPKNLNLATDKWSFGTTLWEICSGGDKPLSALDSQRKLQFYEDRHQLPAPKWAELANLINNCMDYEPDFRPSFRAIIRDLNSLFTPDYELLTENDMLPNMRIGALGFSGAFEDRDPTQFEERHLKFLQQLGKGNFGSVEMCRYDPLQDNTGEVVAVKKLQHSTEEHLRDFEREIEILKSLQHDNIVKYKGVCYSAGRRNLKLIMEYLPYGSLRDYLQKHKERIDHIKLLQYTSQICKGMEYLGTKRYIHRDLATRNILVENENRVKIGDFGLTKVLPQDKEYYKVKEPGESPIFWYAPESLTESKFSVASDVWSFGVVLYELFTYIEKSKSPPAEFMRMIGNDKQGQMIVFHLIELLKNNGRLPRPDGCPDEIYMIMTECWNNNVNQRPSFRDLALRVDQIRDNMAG
Sequence of HGK/MAP4K4 (O95819 whole entry): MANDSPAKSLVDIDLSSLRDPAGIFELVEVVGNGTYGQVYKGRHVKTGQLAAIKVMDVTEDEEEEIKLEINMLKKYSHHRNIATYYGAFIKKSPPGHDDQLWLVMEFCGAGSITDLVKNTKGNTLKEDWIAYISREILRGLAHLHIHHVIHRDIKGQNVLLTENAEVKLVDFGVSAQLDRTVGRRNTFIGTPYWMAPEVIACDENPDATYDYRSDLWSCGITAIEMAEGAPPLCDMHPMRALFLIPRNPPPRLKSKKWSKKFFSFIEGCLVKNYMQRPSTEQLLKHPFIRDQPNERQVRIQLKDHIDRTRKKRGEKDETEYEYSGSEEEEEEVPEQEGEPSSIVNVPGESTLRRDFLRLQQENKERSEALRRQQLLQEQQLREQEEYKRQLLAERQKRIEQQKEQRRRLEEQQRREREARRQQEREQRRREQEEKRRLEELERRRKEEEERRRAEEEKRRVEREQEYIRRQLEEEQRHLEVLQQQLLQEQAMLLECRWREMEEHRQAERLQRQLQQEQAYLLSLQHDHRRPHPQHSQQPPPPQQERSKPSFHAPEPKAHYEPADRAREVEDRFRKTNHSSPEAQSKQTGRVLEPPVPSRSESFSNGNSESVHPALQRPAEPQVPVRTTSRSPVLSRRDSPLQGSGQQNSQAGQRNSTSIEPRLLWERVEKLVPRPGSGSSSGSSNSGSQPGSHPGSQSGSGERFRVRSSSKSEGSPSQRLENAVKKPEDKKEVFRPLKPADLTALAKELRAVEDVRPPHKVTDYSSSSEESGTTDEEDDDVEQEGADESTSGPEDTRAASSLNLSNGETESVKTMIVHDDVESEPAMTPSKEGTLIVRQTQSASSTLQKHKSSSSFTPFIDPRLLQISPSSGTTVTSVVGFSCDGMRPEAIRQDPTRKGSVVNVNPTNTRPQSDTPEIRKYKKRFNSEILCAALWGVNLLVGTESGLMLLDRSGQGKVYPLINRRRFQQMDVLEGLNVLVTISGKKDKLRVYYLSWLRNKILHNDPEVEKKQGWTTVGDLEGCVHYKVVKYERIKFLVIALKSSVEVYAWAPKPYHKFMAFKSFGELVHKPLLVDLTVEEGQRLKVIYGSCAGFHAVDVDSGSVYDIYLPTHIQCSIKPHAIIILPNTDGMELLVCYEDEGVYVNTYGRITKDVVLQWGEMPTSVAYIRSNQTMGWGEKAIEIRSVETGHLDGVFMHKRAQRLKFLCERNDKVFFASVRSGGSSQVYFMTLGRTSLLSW
Sequence of c-Src (P12931 whole entry): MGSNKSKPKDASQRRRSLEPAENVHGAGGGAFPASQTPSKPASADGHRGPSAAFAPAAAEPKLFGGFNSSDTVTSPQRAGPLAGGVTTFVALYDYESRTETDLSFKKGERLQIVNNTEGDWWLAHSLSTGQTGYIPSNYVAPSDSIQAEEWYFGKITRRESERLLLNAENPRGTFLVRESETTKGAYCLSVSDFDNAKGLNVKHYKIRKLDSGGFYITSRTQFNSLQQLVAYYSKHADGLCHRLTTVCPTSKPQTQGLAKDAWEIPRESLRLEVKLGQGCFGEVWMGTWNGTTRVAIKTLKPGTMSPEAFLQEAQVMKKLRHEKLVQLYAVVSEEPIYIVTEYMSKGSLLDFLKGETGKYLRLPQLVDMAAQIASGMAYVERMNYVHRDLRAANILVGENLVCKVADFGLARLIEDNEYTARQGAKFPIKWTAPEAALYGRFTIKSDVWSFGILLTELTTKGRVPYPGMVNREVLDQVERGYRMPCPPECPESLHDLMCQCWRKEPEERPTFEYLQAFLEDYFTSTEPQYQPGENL
Sequence of FYN (P06241 whole entry): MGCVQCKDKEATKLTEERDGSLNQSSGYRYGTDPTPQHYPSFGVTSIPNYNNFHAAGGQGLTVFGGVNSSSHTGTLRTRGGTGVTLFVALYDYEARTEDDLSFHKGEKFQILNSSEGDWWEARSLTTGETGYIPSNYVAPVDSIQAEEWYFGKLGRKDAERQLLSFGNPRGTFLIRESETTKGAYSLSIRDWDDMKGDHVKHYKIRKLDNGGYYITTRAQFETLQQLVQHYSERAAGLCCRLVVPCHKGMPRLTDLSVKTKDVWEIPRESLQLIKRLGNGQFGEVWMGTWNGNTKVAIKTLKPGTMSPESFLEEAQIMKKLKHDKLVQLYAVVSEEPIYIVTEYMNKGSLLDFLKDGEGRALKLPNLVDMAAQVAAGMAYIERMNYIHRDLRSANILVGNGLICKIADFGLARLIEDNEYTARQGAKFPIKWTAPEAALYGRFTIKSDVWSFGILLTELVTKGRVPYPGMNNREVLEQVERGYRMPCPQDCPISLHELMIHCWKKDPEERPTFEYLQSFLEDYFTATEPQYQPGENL

inhibition at 1 µM [1]: ≥ 70%
inhibition at 1 µM [2]: ≥ 70%
inhibition at 1 µM [3]: ≥ 70%
inhibition at 1 µM [4]: ≥ 70%
inhibition at 1 µM [5]: ≥ 70%
inhibition at 1 µM [6]: ≥ 70%
inhibition at 1 µM [7]: ≥ 70%
inhibition at 1 µM [8]: ≥ 70%
inhibition at 1 µM [9]: ≥ 70%
inhibition at 1 µM [10]: ≥ 70%
inhibition at 1 µM [11]: ≥ 70%
inhibition at 1 µM [12]: ≥ 70%
inhibition at 1 µM [13]: ≥ 70%
inhibition at 1 µM [14]: ≥ 70%
inhibition at 1 µM [15]: ≥ 70%
inhibition at 1 µM [16]: ≥ 70%
inhibition at 1 µM [17]: ≥ 70%
inhibition at 1 µM [18]: ≥ 70%
inhibition at 1 µM [19]: ≥ 70%
inhibition at 1 µM [20]: ≥ 70%
inhibition at 1 µM [21]: ≥ 70%
GI50 [22]: < 0.5 µM
SMILES: Cc1ccc(Nc2ncc3cc(-c4cc(NC(=O)c5cccc(C(F)(F)F)c5)ccc4C)ncc3n2)cn1 [Compound No. 4, N-(4-methyl-3-(2-((6-methylpyridin-3-yl)amino)pyrido[3,4-d]pyrimidin-6-yl)phenyl)-3-(trifluoromethyl)benzamide]
